Data on 1 molecule can be found in US8865763B2, “Methods and compositions for altering cell function” (Alltech, Inc., priority 2005, dated 2014).

Type in all cases: in vivo
One test deals with Thioredoxin Reductase 1. Description: Microarray gene expression, mouse intestine: Thioredoxin Reductase 1. The conditions noted are these: diet 1 ppm Se, vs selenium deficient, p <0.01. The text has this: (§1) Animal Care. Male C57BL/6J mice were housed singly and started on the experimental diets described below immediately after weaning (21 days of age). The mice were maintained in the Shared Aging Rodent Facility at the William S. Middleton Memorial Veterans Administration Medical Center (Madison, Wis.). Temperature and humidity were maintained at constant levels. Room light was controlled to provide 12-hr cycles of light and dark.
(§2) Experimental diets were created by Harlan Teklad (Madison, Wis.). Selenium content of the diets was determined by Covance Inc. (Madison, Wis.). Five (5) animals were included in each of the following treatment groups: a diet deficient in selenium (SD); a diet supplemented with selenomethionine (SM, obtained from Sigma, St. Louis, Mo.) such that the final selenium content of the diet was one (1) part per million; a diet supplemented with sodium selenite (SS, Sigma) such that the final concentration of selenium in this diet was one (1) part per million; or a diet supplemented with the yeast selenium SEL-PLEX (SP, Alltech, Lexington, Ky.), such that the final concentration of selenium in this diet was one (1) part per million. SEL-PLEX. […]
(§3) Tissue sample preparation and microarray analysis. […] For intestinal expression studies, the intestine was flushed twice with saline solution and small intestine was measured and divided in three equal segments. […]

The subject of test [1] is Type 1 iodothyronine deiodinase. The experiment in a line: Microarray gene expression, mouse intestine: Type 1 iodothyronine deiodinase. To be noted: diet 1 ppm Se, vs selenium deficient.
From the text: as §1, §2, §3

The next test deals with Selenoprotein W (SelW). Description: Microarray gene expression, mouse intestine: SelW. The conditions noted are these: diet 1 ppm Se, vs selenium deficient.
From the text: as §1, §2, §3

The subject of a further test is SelR (Selenoprotein X1). Description: Microarray gene expression, mouse intestine: SelR. To be noted: diet 1 ppm Se, vs selenium deficient.
From the text: as §1, §2, §3

The test system of the next test is SOD1. Description: Microarray gene expression, mouse intestine: SOD1. To be noted: diet 1 ppm Se, vs selenium deficient.
From the text: as §1, §2, §3

Test [2] deals with Cu chaperone for SOD (CCS). Description: Microarray gene expression, mouse intestine: CCS. To be noted: diet 1 ppm Se, vs selenium deficient.
From the text: as §1, §2, §3

In test [3] the test system is Glutathione S-transferase, mu1 (Gstm1). Description: Microarray gene expression, mouse intestine: Gstm1. To be noted: diet 1 ppm Se, vs Se-deficient diets, negative = down.
From the text: as §1, §2, §3

Test [4] relates to Glutathione S-transferase, mu3 (Gstm3). The experiment in a line: Microarray gene expression, mouse intestine: Gstm3. To be noted: diet 1 ppm Se, vs Se-deficient diets, negative = down.
From the text: as §1, §2, §3

Test [5] concerns Glutathione S-transferase, theta 2 (Gstt2). The experiment in a line: Microarray gene expression, mouse intestine: Gstt2. To be noted: diet 1 ppm Se, vs Se-deficient diets, negative = down.
From the text: as §1, §2, §3

For test [6], the system named is Complement component 1, q subcomponent, beta polypeptide, C1qbp. Description: Microarray gene expression, mouse cerebral cortex: C1q beta polypeptide. To be noted: diet 1 ppm Se, vs selenium deficient, * p<0.01.
From the text: as §1, §2, §3

The test system of test [7] is Amyloid beta (A4) precursor protein-binding, family B, member 1 (Apbb1 or Fe65). Description: Microarray gene expression, mouse cerebral cortex: Apbb1/Fe65. The conditions noted are these: diet 1 ppm Se, vs Se-deficient animals, * P < 0.01.
From the text: as §1, §2, §3

In test [8] the test system is Amyloid beta (A4) precursor-like protein (Aplp 1). Description: Microarray gene expression, mouse cerebral cortex: Aplp 1. To be noted: diet 1 ppm Se, vs Se-deficient animals, * P < 0.01.
From the text: as §1, §2, §3

Another test has as its system Junb. Description: Microarray gene expression, mouse cerebral cortex: Junb. To be noted: diet 1 ppm Se, vs Se-deficient animals, * significant.
From the text: as §1, §2, §3

The test system of a further test is Gst pi 1 (Gstp1). The experiment in a line: Microarray gene expression, mouse cerebral cortex: Gstp1. The conditions noted are these: diet 1 ppm Se, vs Se-deficient animals, * significant.
From the text: as §1, §2, §3

In another test the test system is Gst zeta 1 (Gstz1). Description: Microarray gene expression, mouse cerebral cortex: Gstz1. The conditions noted are these: diet 1 ppm Se, vs Se-deficient animals, * significant.
From the text: as §1, §2, §3

For `O=[Se](O)O` [Sod-sel, sodium selenite], in the test with Thioredoxin Reductase 1, the “fold increase in expression of the Thioredoxin Reductase 1 gene” value came out at 1.7 fold. Also, the “fold increase of expression level of Type 1 iodothyronine deiodinase” value in test [1] was 2.8 fold. Further, the “expression of Selenoprotein W (SelW), fold upregulated” value with Selenoprotein W (SelW) is recorded as 5.1 fold. In addition, in the test with SelR (Selenoprotein X1), the “expression of SelR, fold upregulated” value turned out to be 1.3 fold. For the same molecule, the “enhanced expression of SOD1, fold” value in the test on SOD1 is on record as 1.92 fold. In addition, in [2], the “enhancement in expression of the Cu chaperone for SOD (CCS), fold” value was 1.28 fold. In addition, the “FC (fold change) expression of Gstm1” value in [3] was −2.4 fold. Besides, the “FC (fold change) expression of Gstm3” value in test [4] is −2.7 fold. Further, the “FC (fold change) expression of Gstt2” value in test [5] is given as −1.3 fold. Moreover, the “FC (fold change) expression of complement component 1, q subcomponent, beta polypeptide” value in test [6] is −1.35 fold. In addition, in test [7], the “FC (fold change) expression of Apbb1 (Fe65)” value is on record as −1.32* fold. For the same molecule, the “FC (fold change) expression of Aplp 1” value in test [8] is reported as −1.55* fold. Besides, the “FC (fold change) expression of Junb” value with Junb is −1.59 fold. In addition, in the test with Gst pi 1 (Gstp1), the “FC (fold change) expression of Gstp1” value was found to be 1.02 fold. The “FC (fold change) expression of Gstz1” value in the test with Gst zeta 1 (Gstz1) is −1.3 fold.
